ChEMBL document CHEMBL4732046, “A red-light-activated sulfonamide porphycene for highly efficient photodynamic therapy against hypoxic tumor” (Eur J Med Chem, 2021)
Active and inactive are the calls of the source. No cut-off for these calls is given here.

What was measured:
KYSE-70 cell line = test: Photocytotoxicity against human KYSE-70 cells assessed as reduction in cell viability irradiated with 640 +/- 15 nm red LED for 4 hrs measured after 24 hrs by MTT assay; type: functional, cell-based; settings: KYSE-70, light or radiation study
A-375 [1] = test: Antiproliferative activity against human A-375 cells assessed as inhibition of cell proliferation irradiated with 640 +/- 15 nm red LED for 4 hrs in presence of 30 uM D-mannitol measured after 24 hrs under hypoxic condition by MTT assay; type: functional, cell-based
B16 [2] = test: Antiproliferative activity against mouse B16 cells assessed as inhibition of cell proliferation irradiated with 640 +/- 15 nm red LED for 4 hrs in presence of 30 uM D-mannitol measured after 24 hrs by MTT assay; type: functional, cell-based
[3] = Drug uptake in human A-375 cells upto 2 hrs by flow cytometric analysis; type: ADME, cell-based; settings: a-375, 2 h
[4] = Drug uptake in mouse B16 cells lysosome after 24 hrs by Lyso-Tracker Red dye based confocal microscopic method; type: ADME, subcellular; settings: b16, 24 h
A-375 [5] = test: Induction of morphological changes in human A-375 cells assessed as chromatin condensation at 100 to 300 nM incubated for 24 hrs by Hoechst 33258 staining based assay; type: functional, cell-based; settings: dose 100-300 nM
B16 [6] = test: Induction of apoptosis in mouse B16 cells assessed as apoptotic cells at 200 nM irradiated with 640 +/- 15 nm red LED for 1 hrs after 24 hrs by Annexin V-FITC/propidium iodide staining based flow cytometric analysis relative to control; type: functional, cell-based
A-375 [7] = test: Induction of mitochondrial membrane potential disruption in human A-375 cells assessed as reduction in red fluorescence upto 300 nM irradiated with 640 +/- 15 nm red LED for 1 hrs measured after 24 hrs by JC1 staining based fluorescence microscopy; type: functional, cell-based; settings: dose nM <=300, time 24.0 hrs
B16 [8] = test: Induction of mitochondrial membrane potential disruption in mouse B16 cells assessed as reduction in red fluorescence upto 400 nM irradiated with 640 +/- 15 nm red LED for 1 hrs measured after 24 hrs by JC1 staining based fluorescence microscopy; type: functional, cell-based; settings: dose nM <=400, time 24.0 hrs
A-375 [9] = test: Induction of apoptosis in human A-375 cells assessed as increase in Bad level at 100 to 300 nM irradiated with 640 +/- 15 nm red LED for 1 hrs measured after 24 hrs by Western blot analysis; type: functional, cell-based; settings: dose 100-300 nM
B16 [10] = test: Induction of apoptosis in mouse B16 cells assessed as increase in Bad level at 200 to 400 nM irradiated with 640 +/- 15 nm red LED for 1 hrs measured after 24 hrs by Western blot analysis; type: functional, cell-based; settings: dose 200-400 nM
B16 [11] = test: Induction of apoptosis in mouse B16 cells assessed as increase in Bax level at 200 to 400 nM irradiated with 640 +/- 15 nm red LED for 1 hrs measured after 24 hrs by Western blot analysis; type: functional, cell-based; settings: dose 200-400 nM
A-375 [12] = test: Induction of apoptosis in human A-375 cells assessed as decrease in Bcl2 level at 100 to 300 nM irradiated with 640 +/- 15 nm red LED for 1 hrs measured after 24 hrs by Western blot analysis; type: functional, cell-based; settings: dose 100-300 nM
B16 [13] = test: Induction of apoptosis in mouse B16 cells assessed as decrease in Bcl2 level at 200 to 400 nM irradiated with 640 +/- 15 nm red LED for 1 hrs measured after 24 hrs by Western blot analysis; type: functional, cell-based; settings: dose 200-400 nM
A-375 [14] = test: Induction of apoptosis in human A-375 cells assessed as increase in cleaved caspase 3 level at 100 to 300 nM irradiated with 640 +/- 15 nm red LED for 1 hrs measured after 24 hrs by Western blot analysis; type: functional, cell-based; settings: dose 100-300 nM
A-375 [15] = test: Induction of apoptosis in human A-375 cells assessed as increase in cleaved caspase 9 level at 100 to 300 nM irradiated with 640 +/- 15 nm red LED for 1 hrs measured after 24 hrs by Western blot analysis; type: functional, cell-based; settings: dose 100-300 nM
B16 [16] = test: Induction of apoptosis in mouse B16 cells assessed as increase in cleaved caspase 3 level at 200 to 400 nM irradiated with 640 +/- 15 nm red LED for 1 hrs measured after 24 hrs by Western blot analysis; type: functional, cell-based; settings: dose 200-400 nM
B16 [17] = test: (§1) Antitumor activity against mouse B16 cells xenografted in C57BL/6J mouse assessed as tumor growth inhibition at high dose intratumorally once every 2 days for 2 weeks followed every dosing irradiated with 640 +/- 15 nm red LED for 4 hrs measured after 14 days treatment; type: functional, cell-based; settings: time 14.0 day
[18] = Toxicity in C57BL/6 mouse xenografted with mouse B16 cells assessed as body weight at high dose intratumorally once every 2 days for 2 weeks followed every dosing irradiated with 640 +/- 15 nm red LED for 4 hrs measured after 14 days treatment; settings: in vivo, other, 336 h, time 14 day
[19] = Toxicity in C57BL/6 mouse model assessed as effect on heart treated intratumorally once every 2 days for 2 weeks followed every dosing irradiated with 640 +/- 15 nm red LED for 4 hrs measured upto 28 days by H and E staining dependent light microscopy based histopathological analysis; type: tissue-based; settings: in vivo, other, time <=28 day
[20] = Toxicity in C57BL/6 mouse model assessed as effect on lungs treated intratumorally once every 2 days for 2 weeks followed every dosing irradiated with 640 +/- 15 nm red LED for 4 hrs measured upto 28 days by H and E staining dependent light microscopy based histopathological analysis; settings: in vivo, other, time <=28 day
[21] = Toxicity in C57BL/6 mouse model assessed as effect on kidney treated intratumorally once every 2 days for 2 weeks followed every dosing irradiated with 640 +/- 15 nm red LED for 4 hrs measured upto 28 days by H and E staining dependent light microscopy based histopathological analysis; type: tissue-based; settings: in vivo, other, time <=28 day
[22] = Toxicity in C57BL/6 mouse model assessed as effect on spleen treated intratumorally once every 2 days for 2 weeks followed every dosing irradiated with 640 +/- 15 nm red LED for 4 hrs measured upto 28 days by H and E staining dependent light microscopy based histopathological analysis; type: tissue-based; settings: in vivo, other, time <=28 day
[23] = Toxicity in C57BL/6 mouse model assessed as effect on liver treated intratumorally once every 2 days for 2 weeks followed every dosing irradiated with 640 +/- 15 nm red LED for 4 hrs measured upto 28 days by H and E staining dependent light microscopy based histopathological analysis; type: tissue-based; settings: in vivo, other, time <=28 day
[24] = Toxicity in C57BL/6 mouse model assessed as change in white blood cell count measured after 14 days; type: tissue-based; settings: 336 h, time 14 day
[25] = Toxicity in C57BL/6 mouse assessed as effect on aspartate aminotransferase level measured after 7 days; settings: in vivo, 168 h, time 7 day
[26] = Toxicity in C57BL/6 mouse assessed as effect on blood urea nitrogen level measured upto 14 days; settings: in vivo, 336 h, time <=14 day
[27] = Toxicity in C57BL/6 mouse assessed as effect on serum creatinine level measured upto 14 days; settings: in vivo, 336 h, time <=14 day
HeLa = test: Photo-therapeutic index, ratio of LD50 for photocytotoxicity against human HeLa cells assessed as reduction in cell viability irradiated with 640 +/- 15 nm red LED for 4 hrs measured after 24 hrs by MTT assay to LD50 for cytotoxicity against human HeLa cells assessed as cell viability in dark measured after 24 hrs by MTT assay; type: functional
B16 [28] = test: Induction of intracellular reactive oxygen species production in mouse B16 cells assessed as […] membrane damage at 200 nM irradiated with 640 +/- 15 nm red LED for 1 hr measured after 4 hrs by mito-tracker green based confocal microscopic method; type: functional, cell-based
B16 [29] = test: as §1, with “C57BL/6” for “C57BL/6J”, “inhibition by measuring nuclear pyknosis treated” for “inhibition”; type: functional, cell-based; settings: time 14.0 day

## CC(C)(C)C1=Cc2nc1ccc1[nH]c(cc1S(=O)(=O)NCCOCCO)c1nc(ccc3[nH]c2cc3C(C)(C)C)C(C(C)(C)C)=C1
KYSE-70 cell line
  DC50: 31 nM
A-375 [1]
  Activity: inactive
B16 [2]
  Activity: inactive
[3]
  Drug uptake: Active
[4]
  Drug uptake: Active
A-375 [5]
  Activity: Active
B16 [6]
  Activity: Active
A-375 [7]
  Activity: Active
B16 [8]
  Activity: Active
A-375 [9]
  Activity: Active
B16 [10]
  Activity: Active
B16 [11]
  Activity: Active
A-375 [12]
  Activity: Active
B16 [13]
  Activity: Active
A-375 [14]
  Activity: Active
A-375 [15]
  Activity: Active
B16 [16]
  Activity: Active
B16 [17]
  Activity: Active
[18]
  Activity: Non-Toxic
[19]
  Activity: Non-Toxic
[20]
  Activity: Non-Toxic
[21]
  Activity: Non-Toxic
[22]
  Activity: Non-Toxic
[23]
  Activity: Non-Toxic
[24]
  Activity: Non-Toxic
[25]
  Activity: Toxic
[26]
  Activity: Non-Toxic
[27]
  Activity: Non-Toxic
HeLa
  Ratio: >2040
B16 [28]
  Activity: Active
B16 [29]
  Activity: Active
